System: ConA-stimulated mouse spleen cells
Assay: ConA-stimulated mouse spleen cell proliferation (CFSE, flow cytometry)
Format: cell-based
Settings: final concentration 10 nM, 72 hours, read-out: inhibition rate on the proliferation of spleen cells
Experimental: A method for preparing a suspension of mouse spleen cells added with a stimulator was: 1-week-old C57BL/6 mice were sacrificed by neck dislocation, then the spleen was taken, ground with a 200-mesh sieve, and then rinsed with a lymphatic separation fluid, and the separation solution containing lymphocytes was collected, resuspended by using a RPMI-1640 complete medium containing 10% fetal bovine serum and centrifuged under a centrifugal force of 800 g at low temperature for 30 minutes; and after completion of centrifugation, the lymphocyte layer was pipetted, then resuspended with a RPMI-1640 complete medium containing 10% fetal bovine serum, and then centrifuged under a centrifugal force of 250 g for 10 minutes at low temperature. The obtained lymphocyte layer was resuspended with the RPMI-1640 complete medium containing 10% fetal bovine serum again, and added with a concanavalin A(ConA) suspension resuspended with the RPMI-1640 complete medium containing 10% fetal bovine serum as a stimulator. […]

C=CC[C@@H]1/C=C(\C)C[C@H](C)C[C@H](OC)[C@H]2O[C@@](O)(C(=O)C(=O)N3CCCC[C@H]3C(=O)O[C@H](/C(C)=C/[C@@H]3CC[C@@H](O)[C@H](OC)C3)[C@H](C)[C@@H](O)CC1=O)[C@H](C)C[C@@H]2OC [FK506, tacrolimus]
inhibition at 0.01 µM: 82%

— patent publication US20260248860A1, “LIVER DISEASE REGULATORY FORMULATION AND USE THEREOF” (SHANGHAI CELLIVER BIOTECHNOLOGY CO., LTD., priority 2021, published 2026)
